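Where inhibition never reached the appropriate level, the endpoint shown equals the highest concentration tested. Otherwise, values were interpolated linearly from a five-concentration, 48-hour dose response in 96-well plates. The concentration for 50% growth inhibition is given as GI50.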 Activity calls are given as the source filed them. No stated cut-off is given here; in the data, active = GI50 up to about 1.1 µM and inactive = higher.
Columns and labels:
Assay in all cases: growth of human tumour cells (NCI), 48 h
[1] = test system: MDA-N
[2] = test system: Malme-3M
[3] = test system: SR
[4] = test system: HCT-116
[5] = test system: RXF 393
[6] = test system: RPMI-8226
[7] = test system: MDA-MB-231
[8] = test system: SN12C
[9] = test system: PC-3
[10] = test system: T47D
[11] = test system: IGROV-1
[12] = test system: U-251
[13] = test system: NCI-H522
[14] = test system: SK-MEL-28
[15] = test system: OVCAR-5
[16] = test system: OVCAR-3
[17] = test system: BT-549
[18] = test system: NCI/ADR-RES
[19] = test system: NCI-H23
[20] = test system: M14

| SMILES | GI50 [1] | GI50 [2] | GI50 [3] | GI50 [4] | GI50 [5] | GI50 [6] | GI50 [7] | GI50 [8] | GI50 [9] | GI50 [10] | GI50 [11] | GI50 [12] | GI50 [13] | GI50 [14] | GI50 [15] | GI50 [16] | GI50 [17] | GI50 [18] | GI50 [19] | GI50 [20] |
| --- | --- | --- | --- | --- | --- | --- | --- | --- | --- | --- | --- | --- | --- | --- | --- | --- | --- | --- | --- | --- |
| CCOC(=O)C(C)c1nc2cc(N3CCN(C)CC3)c(F)cc2[nH]c1=O (stereo not given) | > 100 µM (inactive) | 28.9 µM (inactive) | > 100 µM (inactive) | > 100 µM (inactive) | > 100 µM (inactive) | > 100 µM (inactive) | > 100 µM (inactive) | > 100 µM (inactive) | > 100 µM (inactive) | > 100 µM (inactive) | > 100 µM (inactive) | > 100 µM (inactive) | 40.5 µM (inactive) | > 100 µM (inactive) | > 100 µM (inactive) | > 100 µM (inactive) | > 100 µM (inactive) | > 100 µM (inactive) | > 100 µM (inactive) | > 100 µM (inactive) |
| CN1CCC/C1=C1/C(=O)N(c2ccccc2)N=C1c1ccc[nH]1 | > 100 µM (inactive) | > 100 µM (inactive) | > 100 µM (inactive) | > 100 µM (inactive) | > 100 µM (inactive) | > 100 µM (inactive) | > 100 µM (inactive) | > 100 µM (inactive) | > 100 µM (inactive) | > 100 µM (inactive) | > 100 µM (inactive) | > 100 µM (inactive) | > 100 µM (inactive) | > 100 µM (inactive) | > 100 µM (inactive) | > 100 µM (inactive) | > 100 µM (inactive) | > 100 µM (inactive) | > 100 µM (inactive) | > 100 µM (inactive) |
| O=C(c1cccnc1)N1N=C(c2ccc(Cl)cc2)CC1(O)c1cc(F)c(Cl)cc1Cl (stereo not given) | 16.7 µM (inactive) | 33.3 µM (inactive) | 8.85 µM (inactive) | 8.3 µM (inactive) | 7.05 µM (inactive) | 12.2 µM (inactive) | 15.1 µM (inactive) | 14.1 µM (inactive) | 12.9 µM (inactive) | 2.39 µM (inactive) | 1.65 µM (inactive) | 14.3 µM (inactive) | 19.5 µM (inactive) | 23.6 µM (inactive) | 33.7 µM (inactive) | 6.5 µM (inactive) | 24.6 µM (inactive) | 16 µM (inactive) | 18.5 µM (inactive) | 22 µM (inactive) |
| O=C(NCCCNC(=O)c1ccc2c(O)c(O)ccc2c1)c1ccc2c(O)c(O)ccc2c1 | 19.1 µM (inactive) | > 95.5 µM (inactive) | 15.1 µM (inactive) | 32.3 µM (inactive) | 27.3 µM (inactive) | 39.7 µM (inactive) | 29.6 µM (inactive) | 22.4 µM (inactive) | 47.1 µM (inactive) | > 100 µM (inactive) | 18.8 µM (inactive) | 24.1 µM (inactive) | 23.8 µM (inactive) | 97.9 µM (inactive) | 29.1 µM (inactive) | 22.8 µM (inactive) | 18.7 µM (inactive) | 38.1 µM (inactive) | 22.1 µM (inactive) | 26.6 µM (inactive) |
| CCOC(=O)C12CCC(c3c(C)cccc3C)(O1)C(C(=O)OC)=C2C(=O)OC (stereo not given) | 0.484 µM (active) | 1.05 µM (active) | 0.646 µM (active) | 2.14 µM (inactive) | 4.71 µM (inactive) | 3.92 µM (inactive) | 5.07 µM (inactive) | > 6.75 µM (inactive) | 2.09 µM (inactive) | 6.35 µM (inactive) | 3.6 µM (inactive) | 3.76 µM (inactive) | 5.38 µM (inactive) | > 7.5 µM (inactive) | 3.19 µM (inactive) | 0.889 µM (active) | 4 µM (inactive) | > 9.25 µM (inactive) | 3.4 µM (inactive) | 2.69 µM (inactive) |
| CCCCCCCCCCCCCC(=O)N(CCCCCCCCC)CC(O)C(O)C(OC1OC(CO)C(O)C(O)C1O)C(O)CO (stereo not given) | 21.6 µM (inactive) | 18.3 µM (inactive) | 25.6 µM (inactive) | 17.4 µM (inactive) | 24.3 µM (inactive) | 29.9 µM (inactive) | 20.7 µM (inactive) | 19.8 µM (inactive) | 21.8 µM (inactive) | 19.1 µM (inactive) | 20.2 µM (inactive) | 22.5 µM (inactive) | 23 µM (inactive) | 18.1 µM (inactive) | 32.9 µM (inactive) | 26.6 µM (inactive) | 22.9 µM (inactive) | 18.8 µM (inactive) | 19.7 µM (inactive) | 20.1 µM (inactive) |
| CC(=C/C=C/C=C(C)\C=C\C=C(\C)C(=O)O)/C=C/C=C(/C)C(=O)O | > 100 µM (inactive) | > 100 µM (inactive) | > 100 µM (inactive) | > 100 µM (inactive) | > 100 µM (inactive) | > 100 µM (inactive) | > 100 µM (inactive) | > 100 µM (inactive) | > 100 µM (inactive) | > 100 µM (inactive) | > 100 µM (inactive) | > 100 µM (inactive) | > 100 µM (inactive) | > 100 µM (inactive) | > 100 µM (inactive) | > 100 µM (inactive) | > 100 µM (inactive) | > 100 µM (inactive) | > 100 µM (inactive) | > 100 µM (inactive) |
